For data set [1], the system named is green fluorescent protein (GFP) in GFP-expressing endothelial cells. Kind of data set: GFP knockdown in GFP-expressing endothelial cells. The class given is cell-based. The method, then:
GFP-expressing endothelial cells (ATCC) were grown in Dulbecco's Modified Eagle's Medium supplemented with 10% fetal bovine serum. GFP siRNA, 5′-GACGUAAACGGCCACAAGUUC N6-3′ (SEQ ID NO:26) (Dharmacon), was conjugated to fluorescently labeled peptide (containing a free carboxyl group) through EDC chemistry.
A 10 mM peptide solution was incubated with a 10 mM solution of N-(3-Dimethylaminopropyl)-N′-ethylcarbodiimide hydrochloride (EDAC, Sigma) and a 9.5 mM solution of N-Hydroxysulfosuccinimide sodium salt (NHS, Sigma) in equal parts in MES buffer (pH 5.5) for 15 minutes. The amine modified siRNA was then added to the mixture to conjugate the peptide to siRNA and allowed to mix overnight.
The peptide-siRNA complex was added to the appropriate cell culture media to obtain a final concentration of 1 μM siRNA. The media along with peptide-siRNA was then added to the cells and allowed to incubate for 48 hours. Cells were imaged using confocal microscopy and image analysis was performed using ImageJ to determine the overall fluorescence intensity for each cell.

The next data set relates to human keratinocytes. Nature of the data set: MTT assay on keratinocyte cultures. It counts as cell-based. Particulars: 0.1-1.0 mg/mL. The method, then: (a) Peptide internalization (percent of control) for control peptide and SPACE peptide at 4° C. and with the endocytosis inhibitors deoxy-D-glucose, chlorpromazine, nystatin, and EIPA in human keratinocytes. (b) Cell proliferation of human keratinocytes in the presence of control peptide (open bars) or SPACE peptide (closed bars) at 0.1 mg/mL and 1.0 mg/mL. Error cars indicate SD (N=4).
(In general: Tetrazolium assays rely on reduction of a dye to a coloured formazan, in cell work by metabolically active cells.)

Data set [2] relates to porcine skin. Nature of the data set: Inulin permeability of porcine skin after co-incubation with peptide. The class given is in vitro ADME.
In a further data set the test system is mouse skin. Nature of the data set: Peptide penetration into mouse skin in-vivo. The method, then: The ability of the SPACE peptide to penetrate mouse skin in-vivo was tested as follows. 200 μl of fluorescently labeled peptide (1 mg/ml) was applied on the skin of a mouse. Penetration was assessed at various time points by harvesting the skin, sectioning it and observing under a microscope.

The next data set deals with human skin. Nature of the data set: Peptide penetration in human skin (confocal microscopy). It counts as in vitro ADME. The method, then:
The ability of the SPACE peptide to penetrate human skin when removed from phage and conjugated to an exemplary small molecule in the form of a fluorescent tag was tested as follows. Full thickness human skin was obtained from the National Disease Research Interchange. […] Fluorescently labeled peptides, 200 μL of a 1 mg/mL solution, were placed in the donor compartment of the FDC. After 24 hours, the remaining solution in the donor compartment was removed and the FDC was dismantled. The skin sample was retrieved and rinsed with DI water to remove excess peptide or peptide complex on the surface of the skin.

Data set [3] has as its system porcine skin. Kind of data set: Peptide penetration into porcine skin (confocal microscopy). The class given is in vitro ADME. The following applies: 200 μL of 1 mg/mL, 24 hours. Here is the method: The ability of the SPACE peptide to penetrate porcine skin when removed from phage was tested as follows. Full thickness porcine skin was obtained and prepared as described above. Fluorescently labeled peptides, 200 μL of a 1 mg/mL solution, were placed in the donor compartment of the FDC. After 24 hours, the remaining solution in the donor compartment was removed and the FDC was dismantled. The skin sample was retrieved and rinsed with DI water to remove excess peptide or peptide complex on the surface of the skin.

Data set [4] has as its system porcine skin. The class given is in vitro ADME. Here is the method: The ability of the SPACE peptide to carry macromolecular cargos across the SC was tested as follows. Full thickness porcine skin was obtained and prepared as described above. The peptide was first conjugated to the macromolecule as described in greater detail below and then the peptide-macromolecule complex was placed into the donor compartment of the FDC. After 24 hours, the remaining solution in the donor compartment was removed and the FDC was dismantled. The skin sample was retrieved and rinsed with DI water to remove excess peptide complex on the surface of the skin.
To conjugate the peptide to the macromolecule streptavidin, 80 μL of a 1 mg/mL biotinylated peptide solution was incubated with 20 μL of a 2 mg/mL streptavidin-Alexa Fluor 488 conjugate (Invitrogen) solution and incubated at room temperature for 30 minutes. The resulting solution was then placed into the donor compartment of the FDC. Skin samples were harvested after 24 hours and imaged as described above.
The ability of the SPACE peptide to carry quantum dots across the SC was also tested. For the delivery of quantum dots into the skin, 198 μL of a 100 ng/mL biotinylated peptide solution was incubated with 2 μL of QDot 525 streptavidin conjugate (Invitrogen) for 1 hour at room temperature. The 200 μL suspension was then placed into the donor compartment of the FDC. […]

Results on 4 compounds are retold here after US9441014B2, “Skin permeating and cell entering (SPACE) peptides and methods of use thereof” (The Regents of the University of California, priority 2010, dated 2016).

Read-outs that look alike come from different tables or passages of the source. Residues, ends and D or L forms follow the SMILES beside them.

With “5′-GACGUAAACGGCCACAAGUUC N6-3′ (GACGUAAACGGCCACAAGUUC; siRNA; 3' N6 group, conjugated to fluorescently labeled peptide by EDC chemistry, further chemistry not given here) [siRNA alone, GFP siRNA (Dharmacon)]”, the “knockdown of GFP” value in data set [1] (1 μM siRNA, 48 hours) is “no significant knockdown”. The “knockdown of GFP when complexed with Lipofectamine” value in data set [1] (complexed with Lipofectamine, compared to no siRNA treatment) was “knockdown was significant”.

In the case of `C[C@H](N)C(=O)N[C@H]1CSSC[C@@H](C(=O)NCC(=O)O)NC(=O)[C@H](CCC(N)=O)NC(=O)[C@H](Cc2c[nH]cn2)NC(=O)[C@H](CCC(N)=O)NC(=O)[C@H]([C@@H](C)O)NC(=O)[C@H](CO)NC(=O)CNC(=O)[C@H]([C@@H](C)O)NC1=O` [SPACE peptide] (HELM PEPTIDE1{A.C.T.G.S.T.Q.H.Q.C.G}$PEPTIDE1,PEPTIDE1,2:R3-10:R3$$$V2.0; N-terminus and C-terminus assumed), the “toxicity to cells (MTT)” value with human keratinocytes is “not toxic”. The “effect on inulin permeability” value with porcine skin [2] is listed as “only a modest increase”. In the data set with mouse skin (mouse, in vivo), the “penetration into mouse skin in vivo after 30 minutes” value was “resulted in penetration”; the “penetration into mouse skin in vivo after two hours” value is “significant penetration into the skin and localization in the deep dermis”. Moreover, the “penetration/localization in human skin observed from the top” value in the data set on human skin is on record as “high localization of the SPACE peptide within the corneocytes”.

`C[C@H](N)C(=O)N[C@H]1CSSC[C@@H](C(=O)NCC(=O)O)NC(=O)[C@H](CO)NC(=O)[C@H](CCC(N)=O)NC(=O)[C@H]([C@@H](C)O)NC(=O)[C@H](CCC(N)=O)NC(=O)CNC(=O)[C@H](Cc2c[nH]cn2)NC(=O)[C@H]([C@@H](C)O)NC1=O` [control peptide] (HELM PEPTIDE1{A.C.T.H.G.Q.T.Q.S.C.G}$PEPTIDE1,PEPTIDE1,2:R3-10:R3$$$V2.0; N-terminus and C-terminus assumed): the “penetration into mouse skin in vivo” value in the data set on mouse skin (200 μl of 1 mg/ml topical) is “lack of skin penetration in vivo”. Also, the “penetration of fluorescently labeled peptide into porcine skin” value in the data set on porcine skin [3] is recorded as “No significant penetration”. The “penetration/localization in human skin observed from the top” value in the data set on human skin (top view looking down on SC, 24 hours) is “no significant penetration”.

Consider “Streptavidin not conjugated to SPACE peptide: streptavidin-Alexa Fluor 488 conjugate (Invitrogen) alone”, for which the “penetration of Alexa Fluor 488 streptavidin into porcine skin” value in the data set with porcine skin [4] is recorded as “minimal penetration into epidermis”.
